Assay results reported in BindingDB's records for doi:10.1021/jm00009a001 (Cns Research, 1995).

Target: Metabotropic glutamate receptor 5 (Rattus norvegicus, UniProt P31424)
Experiment: Concentration for half maximal activation of metabotropic glutamate mGluR5a in rat

Sequence of Metabotropic glutamate receptor 5 (P31424 whole entry): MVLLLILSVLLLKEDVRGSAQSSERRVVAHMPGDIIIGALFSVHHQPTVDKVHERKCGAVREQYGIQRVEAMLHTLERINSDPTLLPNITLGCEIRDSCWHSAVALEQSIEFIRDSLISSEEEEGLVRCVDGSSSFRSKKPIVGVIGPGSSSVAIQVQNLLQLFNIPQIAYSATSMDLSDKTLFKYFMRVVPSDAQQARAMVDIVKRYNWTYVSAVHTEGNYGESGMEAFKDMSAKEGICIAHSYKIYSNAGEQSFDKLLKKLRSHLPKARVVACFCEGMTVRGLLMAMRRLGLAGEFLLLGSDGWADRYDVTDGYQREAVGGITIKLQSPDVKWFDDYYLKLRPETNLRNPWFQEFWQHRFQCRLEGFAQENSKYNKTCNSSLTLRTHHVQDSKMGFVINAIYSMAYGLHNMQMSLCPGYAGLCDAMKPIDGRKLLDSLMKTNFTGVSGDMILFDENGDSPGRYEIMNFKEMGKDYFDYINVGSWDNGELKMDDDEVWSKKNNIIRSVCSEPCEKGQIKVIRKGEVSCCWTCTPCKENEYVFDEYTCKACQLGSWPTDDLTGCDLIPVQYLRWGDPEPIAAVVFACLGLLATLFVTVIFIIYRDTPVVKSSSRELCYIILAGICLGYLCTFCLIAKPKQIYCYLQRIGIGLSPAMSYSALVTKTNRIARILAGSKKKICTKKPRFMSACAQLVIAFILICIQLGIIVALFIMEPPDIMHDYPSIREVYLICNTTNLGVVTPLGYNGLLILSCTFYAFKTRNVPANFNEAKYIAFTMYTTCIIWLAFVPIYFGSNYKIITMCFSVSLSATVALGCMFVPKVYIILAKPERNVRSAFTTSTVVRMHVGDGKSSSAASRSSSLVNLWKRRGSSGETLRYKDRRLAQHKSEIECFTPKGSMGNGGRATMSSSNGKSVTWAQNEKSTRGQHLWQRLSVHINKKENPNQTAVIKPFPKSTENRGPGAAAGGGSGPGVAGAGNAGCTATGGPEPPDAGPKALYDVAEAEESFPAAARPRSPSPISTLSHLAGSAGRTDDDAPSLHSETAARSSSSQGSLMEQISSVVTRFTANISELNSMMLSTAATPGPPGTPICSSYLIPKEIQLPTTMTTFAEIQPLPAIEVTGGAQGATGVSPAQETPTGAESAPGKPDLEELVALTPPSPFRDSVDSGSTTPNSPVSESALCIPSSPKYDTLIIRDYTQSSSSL

SMILES	EC50 [µM]
N[C@@H](Cn1oc(=O)[nH]c1=O)C(=O)O [2-amino-3-(3,5-dioxo[1,2,4]oxadiazolidin-2-yl)propionic acid]	0.3
N[C@H](C(=O)O)c1cc(=O)[nH]o1 [(S)-Amino-(3-oxo-2,3-dihydro-isoxazol-5-yl)-acetic acid]	10
N[C@@H](CCC(=O)O)C(=O)O [L-Glutamic acid]	10
N[C@@]1(C(=O)O)CC[C@@H](C(=O)O)C1 [SMR001230688]	50
